Data on 41 molecules can be found in PMC6445162, “Effects of NS2B-NS3 protease and furin inhibition on West Nile and Dengue virus replication” (Journal of Enzyme Inhibition and Medicinal Chemistry, 2017).

“And” between values parts separate entries of the source, which are not always exact repeats. Equal entries are not always repeated. Peptide text beside a SMILES is read from it.

Assay [1] has as its target covalently linked WNV NS2B-NS3 protease construct (West Nile virus) (UniProt P06935). Kind of assay: enzyme inhibition kinetics (Ki from Dixon plots, fluorogenic substrate); WNV NS2B-NS3 construct ~4 nM in assay; substrate Phac-Leu-Lys-Lys-Arg-AMC 50, 100 and 200 µM (KM = 47.5 µM); 100 mM Tris pH 8.5, 20% glycerol, 0.01% Triton X-100; room temperature; Ki the average of at least two measurements.

For assay [2], the target named is T1, WNV NS2B-NS3 protease (West Nile virus, UniProt P06935).
T1 construct: WNV NS2B 40-amino acid cofactor together with the NS3 protease domain
The assay is described as follows: Enzyme kinetic inhibition of WNV NS2B-NS3 protease construct (Dixon plot). Format: biochemical. To be noted: for Ki: covalently linked WNV NS2B-NS3 construct, substrate Phac-Leu-Lys-Lys-Arg-AMC, Dixon plots, average of at least two measurements. Here is the method:
(§1) All measurements were performed at room temperature in black flat-bottom 96-well plates (Nunc, Langenselbold, Germany) using microplate readers (Tecan Safire^2, λex = 380 nm and λem = 460 nm, Tecan Group Ltd., Männedorf, Switzerland or Fluoroskan Ascent type 374, λex = 355 nm and λem = 460 nm; Thermo Fisher Scientific, Vantaa, Finland). The assays with the flavivirus protease constructs were performed with 125 μl buffer (100 mM Tris pH 8.5 containing 20% glycerol, 0.01% Triton X-100, and the inhibitor), 50 μl substrate solution, and were started by addition of 25 μl enzyme solution (total assay volume 200 μl).
For measurements with the covalently linked WNV NS2B-NS3 protease construct (∼4 nM in assay) the substrate Phac-Leu-Lys-Lys-Arg-AMC ×3 TFA (50 µM, 100 µM and 200 µM in assay, KM = 47.5 µM) was used, as described previously.
(§2) The DENV serotype 2 NS2B-NS3 protease construct was prepared from an identical clone as described by D’Arcy et al.[26] The purification of the protease was carried out in a buffer with high ion-strength and low pH value, in the absence of glycerol (20 mM Bis-Tris, 500 mM NaCl, pH 6.3), in order to prevent autolysis of the enzyme. Purification was performed by using a 5 ml HisTrapTM FF column (GE Healthcare) and subsequently, a HiLoad 16/60 SuperdexTM 75 column (GE Healthcare). The assays with the DENV-2 NS2B-NS3^pr° (∼39 nM in well) were performed with the substrate Phac-Lys-Arg-Arg-AMC ×3 TFA (125 µM, 62.5 µM and 31.25 µM in assay, KM = 60 µM). All Ki values were obtained from Dixon plots[27] and are the average of at least two measurements. Due to the weak potency of most compounds against the DENV-2 NS2B-NS3 protease construct, only the percentage of inhibition at a constant inhibitor concentration of 100 µM in the presence of 125 µM substrate was determined.

Assay [3] addresses T2, DENV serotype 2 NS2B-NS3 protease (Dengue virus type 2, UniProt P14340).
T2 construct: The proteolytic activity of WNV and DENV is located in the N-terminal part of its NS3 protein; made in house
Kind of assay: Enzyme kinetic inhibition of DENV-2 NS2B-NS3 protease construct. Format: biochemical, Dengue virus serotype 2. To be noted: for inhibition at 100 µM: 100 μM inhibitor in the presence of 125 μM substrate, read-out: % Inhib. (DENV). Here is the method:
as §1, §2

Molecule “1-Adamantylacetic acid-Lys-Lys-Arg-NH2 (peptide)” returned a Ki in assay [1] of 13.8 µM. With “1-Adamantylglycine-Lys-Lys-Arg-NH2 (peptide)”, in assay [1], the Ki was found to be 70 µM. Regarding “3,4-(Methylenedioxy)-Phac-Lys-Lys-Arg-NH2 (peptide)”, the Ki in assay [1] was 0.68 µM. In the case of “3,4-Cl2-Phac-Lys-Lys-Arg-Gly-NH2 (peptide)”, the Ki in assay [1] stood at 1.8 µM. In assay [1], 3,4-Cl2-Phac-Lys-Lys-Arg-NH2 (peptide) gave a Ki of 1.13 µM. In the case of 3-AMe-Phac-Lys-Lys-Arg-NH2 (peptide), the Ki in assay [1] stood at 0.36 µM. Take 3-GMe-Phac-Lys-Lys-Arg-NH2 (peptide): the Ki in assay [1] amounted to 0.18 µM. Molecule 3-NH2-Phac-Lys-Lys-Arg-NH2 (peptide) registered a Ki in assay [1] of 1.2 µM. For the molecule 4-AMe-Phac-Lys-Lys-Arg-NH2 (peptide), the Ki in assay [1] worked out at 0.38 µM. With 4-GMe-Phac-Lys-Lys-GCMA, the Ki in assay [2] came out at 0.23 µM; in assay [3] (DENV-2 NS2B-NS3 construct, substrate Phac-Lys-Arg-Arg-AMC, Dixon plots), 67 µM. In assay [1], 4-OH-Phac-Lys-Lys-Arg-NH2 (peptide) showed a Ki of 0.54 µM.

4-Phenyl-Phac-Lys-Lys-Arg-NH2 (peptide) displayed a Ki in assay [1] of 0.53 µM. For `N=C(N)NC1CCC(CNC(=O)C(CCCCN)NC(=O)C(Cc2ccc(CN)cc2)NC(=O)Cc2ccccc2)CC1` (centres unmarked) [inhibitor 3, Phac-Phe(4-AMe)-Lys-GCMA], the “fold reduced potency against WNV protease” value in assay [2] (compared with reference inhibitor 2) was found to be 4 fold. For the same molecule, the Ki in assay [2] was 4.7 µM and 4.71 µM. Moreover, the inhibition at 100 µM in assay [3] is 12.4%. `N=C(N)NCc1ccc(CC(NC(=O)Cc2ccccc2)C(=O)NC(CCCCN)C(=O)NCC2CCC(NC(=N)N)CC2)cc1` (centres unmarked) [inhibitor 9] returned a Ki in assay [2] of 44 µM. Turning to `N=C(N)NCCC[C@H](NC(=O)[C@H](CCCCN)NC(=O)[C@H](CCCCN)NC(=O)Cc1ccccc1)C(=O)NCC(=O)NCC(N)=O` [inhibitor 17] (HELM PEPTIDE1{[O=C(Cc1ccccc1)[*:2]].K.K.R.G.G.[am]}$$$$V2.0), the Ki in assay [2] is 1.56 µM. Further, in assay [3], the inhibition at 100 µM was 35.1%. `N=C(N)NCCC[C@H](NC(=O)[C@H](CCCCN)NC(=O)[C@H](CCCCN)NC(=O)Cc1ccccc1)C(=O)NCC(N)=O` [inhibitor 18] (HELM PEPTIDE1{[O=C(Cc1ccccc1)[*:2]].K.K.R.G.[am]}$$$$V2.0): the Ki in assay [2] was 2.56 µM. In assay [3], the inhibition at 100 µM turned out to be 30.7%. Molecule `C[C@H](NC(=O)[C@H](CCCNC(=N)N)NC(=O)[C@H](CCCCN)NC(=O)[C@H](CCCCN)NC(=O)Cc1ccccc1)C(N)=O` [inhibitor 19] (HELM PEPTIDE1{[O=C(Cc1ccccc1)[*:2]].K.K.R.A.[am]}$$$$V2.0) gave a Ki in assay [2] of 25 µM. Besides, the inhibition at 100 µM in assay [3] is 5.6%. In the case of `C[C@@H](NC(=O)[C@H](CCCNC(=N)N)NC(=O)[C@H](CCCCN)NC(=O)[C@H](CCCCN)NC(=O)Cc1ccccc1)C(N)=O` [inhibitor 20] (HELM PEPTIDE1{[O=C(Cc1ccccc1)[*:2]].K.K.R.[dA].[am]}$$$$V2.0), the Ki in assay [2] stood at 75 µM. Moreover, the inhibition at 100 µM in assay [3] stood at 12%. `CC(C)[C@H](NC(=O)[C@H](CCCNC(=N)N)NC(=O)[C@H](CCCCN)NC(=O)[C@H](CCCCN)NC(=O)Cc1ccccc1)C(N)=O` [inhibitor 21] (HELM PEPTIDE1{[O=C(Cc1ccccc1)[*:2]].K.K.R.V.[am]}$$$$V2.0): in assay [2], the Ki was 105 µM. Besides, the inhibition at 100 µM in assay [3] was 12%. In assay [2], `CC(C)(C)[C@H](NC(=O)[C@H](CCCNC(=N)N)NC(=O)[C@H](CCCCN)NC(=O)[C@H](CCCCN)NC(=O)Cc1ccccc1)C(N)=O` [inhibitor 22] (HELM PEPTIDE1{[O=C(Cc1ccccc1)[*:2]].K.K.R.[CC(C)(C)[C@H](N[*:1])C(=O)[*:2]].[am]}$$$$V2.0) yielded a Ki of 140 µM. Besides, the inhibition at 100 µM in assay [3] was 6.4%. On to `N=C(N)NCCC[C@H](NC(=O)[C@H](CCCCN)NC(=O)[C@H](CCCCN)NC(=O)Cc1ccccc1)C(=O)N1CCC[C@H]1C(N)=O` [inhibitor 23] (HELM PEPTIDE1{[O=C(Cc1ccccc1)[*:2]].K.K.R.P.[am]}$$$$V2.0), for which the Ki in assay [2] is 200 µM. Besides, in assay [3], the inhibition at 100 µM is 5.2%.

As to `CN(CC(N)=O)C(=O)[C@H](CCCNC(=N)N)NC(=O)[C@H](CCCCN)NC(=O)[C@H](CCCCN)NC(=O)Cc1ccccc1` [inhibitor 24] (HELM PEPTIDE1{[O=C(Cc1ccccc1)[*:2]].K.K.R.[Sar].[am]}$$$$V2.0), the Ki in assay [2] turned out to be 50 µM. The inhibition at 100 µM in assay [3] came out at 3.2%. `N=C(N)NCCC[C@H](NC(=O)[C@H](CCCCN)NC(=O)[C@H](CCCCN)NC(=O)Cc1ccccc1)C(=O)NCCCC(N)=O` [inhibitor 25] (HELM PEPTIDE1{[O=C(Cc1ccccc1)[*:2]].K.K.R.[O=C(CCCN[*:1])[*:2]].[am]}$$$$V2.0): in assay [2], the Ki is 15 µM. The inhibition at 100 µM in assay [3] was 26.3%. In turn, `N=C(N)NCCC[C@H](NC(=O)[C@H](CCCCN)NC(=O)[C@H](CCCCN)NC(=O)Cc1ccccc1)C(=O)NCCCCCC(N)=O` [inhibitor 26] (HELM PEPTIDE1{[O=C(Cc1ccccc1)[*:2]].K.K.R.[O=C(CCCCCN[*:1])[*:2]].[am]}$$$$V2.0) displayed a Ki in assay [2] of 17 µM.

In the case of `N=C(N)NCCC[C@H](NC(=O)[C@H](CCCCN)NC(=O)[C@H](CCCCN)NC(=O)Cc1ccccc1)C(=O)O` [inhibitor 28, Phac-Lys-Lys-Arg-OH] (HELM PEPTIDE1{[O=C(Cc1ccccc1)[*:2]].K.K.R}$$$$V2.0), in assay [2], the Ki turned out to be 27 µM. Turning to `N=C(N)NCCC[C@H](NC(=O)[C@H](CCCCN)NC(=O)[C@H](CCCCN)NC(=O)C(N)C1CCCCC1)C(N)=O` (some centres unmarked) [inhibitor 42] (HELM PEPTIDE1{[NC(C(=O)[*:2])C1CCCCC1].K.K.R.[am]}$$$$V2.0), in assay [3], the inhibition at 100 µM worked out at 31.7%. In turn, “AC-D/L-α-phenylglycine-Lys-Lys-Arg-NH2 (peptide)” displayed a Ki in assay [1] of 4.18 µM. “Cyclohexylacetic acid-Lys-Lys-Arg-NH2 (peptide)” had a Ki in assay [1] of 4.8 µM.

Molecule “D/L-α-phenylglycine-Lys-Lys-Arg-NH2 (peptide)” came in with a Ki in assay [1] of 3.6 µM. Phac-Lys-Lys-Arg-Aca-NH2 (peptide) yielded a Ki in assay [1] of 17 µM. Consider Phac-Lys-Lys-Arg-Ala-NH2 (peptide), for which, in assay [1], the Ki worked out at 25 µM. Phac-Lys-Lys-Arg-DAla-NH2 (peptide) had a Ki in assay [1] of 75 µM. Molecule Phac-Lys-Lys-Arg-Gaba-NH2 (peptide) returned a Ki in assay [1] of 15 µM. Phac-Lys-Lys-Arg-Gly-NH2 (peptide) registered a Ki in assay [1] of 2.56 µM. On the same count and under the same terms, the figure for Phac-Lys-Lys-Arg-NH2 (peptide) is 2.47 µM; for Phac-Lys-Lys-Arg-Pro-NH2 (peptide) it is 200 µM; for Phac-Lys-Lys-Arg-Sar-NH2 (peptide) it is 50 µM.

In assay [1], Phac-Lys-Lys-Arg-Tle-NH2 (peptide) yielded a Ki of 140 µM. As for Phac-Lys-Lys-Arg-Val-NH2 (peptide), the Ki in assay [1] was 105 µM. Same read-out and setting: the figure for “α-Cyclohexylglycine-Lys-Lys-Arg-NH2 (peptide)” is 26.3 µM.

B1: Phac-Lys-Lys-Arg-Gly-Gly-NH2 (peptide)
peptide: KKRGG
HELM: PEPTIDE1{[O=C(Cc1ccccc1)[*:2]].K.K.R.G.G.[am]}$$$$V2.0
SMILES: N=C(N)NCCC[C@H](NC(=O)[C@H](CCCCN)NC(=O)[C@H](CCCCN)NC(=O)Cc1ccccc1)C(=O)NCC(=O)NCC(N)=O
The molecule B1 displayed a Ki in assay [1] of 1.56 µM.
